Measured values: ChEMBL document CHEMBL4406811, “Optimization and Mechanistic Characterization of Pyridopyrimidine Inhibitors of Bacterial Biotin Carboxylase” (J Med Chem, 2019)
In brackets after ≈: the same amount, converted by molar mass. Activity calls are given as the source filed them. The calls are words filed in the database; no cut-off is given here.

Experiments:
Escherichia coli [1] = experiment: Induction of cytological changes in Escherichia coli ATCC 25922 assessed as formation of short chains of three to eight cells at 100 ug/ml measured after 2 hrs by FM 4-64/DAPI staining based microscopic analysis; assay type: functional, organism-based
NTRK1 = NTRK1 (Homo sapiens, UniProt P04629); experiment: Inhibition of recombinant human His-tagged NTRK1 cytoplasmic domain (441 to 796 residues) expressed in baculovirus expression system at 25 uM using FRET-labeled tyr 07 peptide as substrate measured after 1 hr by Z'-lyte assay relative to control; conditions: probe FRET-labeled tyr 07 peptide
MAPK1 = MAPK1 (Homo sapiens, UniProt P28482); experiment: Inhibition of recombinant human full-length GST-tagged MAPK1 […] expressed in Escherichia coli at 25 uM using FRET-labeled Ser/Thr 03 peptide as substrate measured after 1 hr by Z'-lyte assay relative to control; conditions: probe FRET-labeled Ser/Thr 03 peptide
MAPK14 = MAPK14 (Homo sapiens, UniProt Q16539); experiment: Inhibition of recombinant human full-length GST-tagged MAPK14 expressed in Escherichia coli at 25 uM using FRET-labeled Ser/Thr 15 peptide as substrate measured after 1 hr by Z'-lyte assay relative to control; conditions: probe FRET-labeled Ser/Thr 15 peptide
AURKA = AURKA (Homo sapiens, UniProt O14965); experiment: Inhibition of recombinant human full-length His-tagged AURKA expressed in baculovirus expression system at 25 uM using FRET-labeled Ser/Thr 01 peptide as substrate measured after 1 hr by Z'-lyte assay relative to control; conditions: probe FRET-labeled Ser/Thr 01 peptide
CDK1/cyclin B = CDK1/cyclin B (Homo sapiens, UniProt P06493); experiment: Inhibition of full-length recombinant human His-tagged CDK1/cyclin B expressed in baculovirus expression system at 25 uM using FRET-labeled Ser/Thr 18 peptide as substrate measured after 1 hr by Z'-lyte assay relative to control; conditions: probe FRET-labeled Ser/Thr 18 peptide
SGK (Sgk1) = SGK (Sgk1) (Homo sapiens, UniProt O00141); experiment: Inhibition of recombinant human GST-tagged SGK catalytic domain (60 to 431 residues) expressed in baculovirus expression system at 25 uM using FRET-labeled Ser/Thr 06 peptide as substrate measured after 1 hr by Z'-lyte assay relative to control; conditions: probe FRET-labeled Ser/Thr 06 peptide
CSNK2A1 = CSNK2A1 (Homo sapiens, UniProt P68400); experiment: Inhibition of recombinant human full-length His-tagged CSNK2A1 expressed in baculovirus expression system at 25 uM using FRET-labeled Ser/Thr 11 peptide as substrate measured after 1 hr by Z'-lyte assay relative to control; conditions: probe FRET-labeled Ser/Thr 11 peptide
Biotin carboxylase = Biotin carboxylase (Pseudomonas aeruginosa (strain ATCC 15692 / DSM 22644 / CIP 104116 / JCM14847 / LMG 12228 / 1C / PRS 101 / PAO1), UniProt P37798); experiment: Inhibition of recombinant N-terminal His-tagged Pseudomonas aeruginosa PAO1 biotin carboxylase expressed in Escherichia coli Rosetta(DE3) pLysS cells using biotin as substrate by spectroscopic analysis
Escherichia coli [2] = experiment: Antibacterial activity against Escherichia coli DM4100 harboring deltatolC mutant measured after 18 to 20 hrs by broth microdilution method; assay type: functional
Escherichia coli [3] = experiment: Induction of cytological changes in Escherichia coli ATCC 25922 assessed as formation of short chains of three to eight cells at 15 ug/ml measured after 2 hrs by FM 4-64/DAPI staining based microscopic analysis; assay type: functional, organism-based
FYN = FYN (Homo sapiens, UniProt P06241); experiment: Inhibition of full-length recombinant human C-terminal His-tagged FYN cytoplasmic domain expressed in baculovirus expression system at 25 uM using FRET-labeled tyr 02 peptide as substrate measured after 1 hr by Z'-lyte assay relative to control; conditions: probe FRET-labeled tyr 02 peptide
Pseudomonas aeruginosa = experiment: Antibacterial activity against Pseudomonas aeruginosa PAO1 PAM1262 harboring MexAB-OprM/MexCD-OprJ/MexEF-OprN deletion mutant assessed as mutation frequency at 8 times MIC after 48 hrs by broth microdilution method; assay type: functional
MET = MET (Homo sapiens, UniProt P08581); experiment: in vitro; conditions: probe FRET-labeled Tyr 06 peptide
IKBKE = IKBKE (Homo sapiens, UniProt Q14164); experiment: in vitro; conditions: probe FRET-labeled Ser/Thr 11 peptide
BTK = BTK (Homo sapiens, UniProt Q06187); experiment: Inhibition of full-length recombinant human His-tagged BTK cytoplasmic domain expressed in baculovirus expression system at 25 uM using FRET-labeled tyr 01 peptide as substrate measured after 1 hr by Z'-lyte assay relative to control; conditions: probe FRET-labeled tyr 01 peptide
IKBKB = IKBKB (Homo sapiens, UniProt O14920); experiment: in vitro; conditions: probe FRET-labeled Ser/Thr 05 peptide

Chain of NTRK1 (P04629 whole entry, the tested form may be a part): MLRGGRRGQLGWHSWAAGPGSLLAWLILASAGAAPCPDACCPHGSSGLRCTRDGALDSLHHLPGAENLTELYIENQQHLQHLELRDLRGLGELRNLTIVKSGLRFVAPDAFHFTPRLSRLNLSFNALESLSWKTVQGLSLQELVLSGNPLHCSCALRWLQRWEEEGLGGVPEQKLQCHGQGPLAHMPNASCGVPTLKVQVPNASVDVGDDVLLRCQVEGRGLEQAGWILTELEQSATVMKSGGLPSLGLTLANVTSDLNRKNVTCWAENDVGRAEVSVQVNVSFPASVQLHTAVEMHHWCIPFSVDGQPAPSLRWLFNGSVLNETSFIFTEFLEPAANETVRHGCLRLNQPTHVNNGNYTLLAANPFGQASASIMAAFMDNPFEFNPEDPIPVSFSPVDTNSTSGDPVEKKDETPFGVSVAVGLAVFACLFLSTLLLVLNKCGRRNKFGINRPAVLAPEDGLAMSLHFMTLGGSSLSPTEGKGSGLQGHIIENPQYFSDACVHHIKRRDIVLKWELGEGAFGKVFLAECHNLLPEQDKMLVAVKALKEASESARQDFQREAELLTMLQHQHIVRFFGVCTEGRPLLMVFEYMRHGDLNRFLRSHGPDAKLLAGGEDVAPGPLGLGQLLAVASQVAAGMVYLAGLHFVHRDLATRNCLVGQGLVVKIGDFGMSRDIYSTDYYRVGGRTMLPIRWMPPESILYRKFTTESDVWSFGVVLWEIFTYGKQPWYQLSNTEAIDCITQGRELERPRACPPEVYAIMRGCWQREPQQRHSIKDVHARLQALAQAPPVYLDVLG
Chain of MAPK1 (P28482 whole entry): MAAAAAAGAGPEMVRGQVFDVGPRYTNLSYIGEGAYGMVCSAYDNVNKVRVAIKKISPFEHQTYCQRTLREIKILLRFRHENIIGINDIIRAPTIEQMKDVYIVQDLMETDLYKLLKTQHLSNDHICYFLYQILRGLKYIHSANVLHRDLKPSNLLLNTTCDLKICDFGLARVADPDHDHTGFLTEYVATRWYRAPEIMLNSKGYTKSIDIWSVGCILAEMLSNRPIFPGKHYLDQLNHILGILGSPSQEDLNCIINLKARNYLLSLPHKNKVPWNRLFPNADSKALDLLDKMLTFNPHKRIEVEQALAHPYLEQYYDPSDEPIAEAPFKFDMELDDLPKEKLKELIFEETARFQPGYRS
Chain of Biotin carboxylase (P37798 whole entry): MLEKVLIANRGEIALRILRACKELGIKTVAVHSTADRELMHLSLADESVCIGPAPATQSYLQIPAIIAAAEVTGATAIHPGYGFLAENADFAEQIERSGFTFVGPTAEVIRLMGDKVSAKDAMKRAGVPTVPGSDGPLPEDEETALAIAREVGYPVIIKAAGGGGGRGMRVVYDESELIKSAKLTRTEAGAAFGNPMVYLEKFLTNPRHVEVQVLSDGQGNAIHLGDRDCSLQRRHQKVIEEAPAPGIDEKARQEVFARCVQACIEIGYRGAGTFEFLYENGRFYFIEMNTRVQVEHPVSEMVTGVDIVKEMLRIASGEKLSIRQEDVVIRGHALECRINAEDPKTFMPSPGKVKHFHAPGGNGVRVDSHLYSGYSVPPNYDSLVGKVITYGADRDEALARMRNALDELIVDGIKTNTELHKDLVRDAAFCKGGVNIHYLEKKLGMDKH
Chain of CSNK2A1 (P68400 whole entry): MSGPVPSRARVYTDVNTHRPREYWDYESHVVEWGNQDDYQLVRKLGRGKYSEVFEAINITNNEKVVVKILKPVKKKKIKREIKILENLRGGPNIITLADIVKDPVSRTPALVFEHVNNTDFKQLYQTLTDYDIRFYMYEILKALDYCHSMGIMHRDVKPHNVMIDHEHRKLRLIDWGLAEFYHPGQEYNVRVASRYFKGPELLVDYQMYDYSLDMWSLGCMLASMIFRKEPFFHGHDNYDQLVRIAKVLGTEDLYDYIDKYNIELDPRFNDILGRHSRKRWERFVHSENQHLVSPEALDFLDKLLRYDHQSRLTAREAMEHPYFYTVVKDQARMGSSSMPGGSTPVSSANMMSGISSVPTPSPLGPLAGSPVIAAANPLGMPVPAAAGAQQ
Chain of FYN (P06241 whole entry, the tested form may be a part): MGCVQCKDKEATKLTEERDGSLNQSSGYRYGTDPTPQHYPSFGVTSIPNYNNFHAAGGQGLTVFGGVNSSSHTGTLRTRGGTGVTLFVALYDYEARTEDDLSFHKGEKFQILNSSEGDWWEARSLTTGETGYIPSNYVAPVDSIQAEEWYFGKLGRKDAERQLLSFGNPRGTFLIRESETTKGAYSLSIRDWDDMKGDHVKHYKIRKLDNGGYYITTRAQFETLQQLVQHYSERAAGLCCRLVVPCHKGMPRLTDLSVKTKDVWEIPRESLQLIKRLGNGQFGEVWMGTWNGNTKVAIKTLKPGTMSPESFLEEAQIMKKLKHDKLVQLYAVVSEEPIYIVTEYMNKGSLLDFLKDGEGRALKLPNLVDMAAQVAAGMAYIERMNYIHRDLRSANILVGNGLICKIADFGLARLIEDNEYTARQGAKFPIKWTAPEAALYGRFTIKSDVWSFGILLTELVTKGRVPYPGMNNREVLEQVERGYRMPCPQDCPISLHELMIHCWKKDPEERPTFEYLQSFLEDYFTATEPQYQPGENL
Chain of MET (P08581 whole entry): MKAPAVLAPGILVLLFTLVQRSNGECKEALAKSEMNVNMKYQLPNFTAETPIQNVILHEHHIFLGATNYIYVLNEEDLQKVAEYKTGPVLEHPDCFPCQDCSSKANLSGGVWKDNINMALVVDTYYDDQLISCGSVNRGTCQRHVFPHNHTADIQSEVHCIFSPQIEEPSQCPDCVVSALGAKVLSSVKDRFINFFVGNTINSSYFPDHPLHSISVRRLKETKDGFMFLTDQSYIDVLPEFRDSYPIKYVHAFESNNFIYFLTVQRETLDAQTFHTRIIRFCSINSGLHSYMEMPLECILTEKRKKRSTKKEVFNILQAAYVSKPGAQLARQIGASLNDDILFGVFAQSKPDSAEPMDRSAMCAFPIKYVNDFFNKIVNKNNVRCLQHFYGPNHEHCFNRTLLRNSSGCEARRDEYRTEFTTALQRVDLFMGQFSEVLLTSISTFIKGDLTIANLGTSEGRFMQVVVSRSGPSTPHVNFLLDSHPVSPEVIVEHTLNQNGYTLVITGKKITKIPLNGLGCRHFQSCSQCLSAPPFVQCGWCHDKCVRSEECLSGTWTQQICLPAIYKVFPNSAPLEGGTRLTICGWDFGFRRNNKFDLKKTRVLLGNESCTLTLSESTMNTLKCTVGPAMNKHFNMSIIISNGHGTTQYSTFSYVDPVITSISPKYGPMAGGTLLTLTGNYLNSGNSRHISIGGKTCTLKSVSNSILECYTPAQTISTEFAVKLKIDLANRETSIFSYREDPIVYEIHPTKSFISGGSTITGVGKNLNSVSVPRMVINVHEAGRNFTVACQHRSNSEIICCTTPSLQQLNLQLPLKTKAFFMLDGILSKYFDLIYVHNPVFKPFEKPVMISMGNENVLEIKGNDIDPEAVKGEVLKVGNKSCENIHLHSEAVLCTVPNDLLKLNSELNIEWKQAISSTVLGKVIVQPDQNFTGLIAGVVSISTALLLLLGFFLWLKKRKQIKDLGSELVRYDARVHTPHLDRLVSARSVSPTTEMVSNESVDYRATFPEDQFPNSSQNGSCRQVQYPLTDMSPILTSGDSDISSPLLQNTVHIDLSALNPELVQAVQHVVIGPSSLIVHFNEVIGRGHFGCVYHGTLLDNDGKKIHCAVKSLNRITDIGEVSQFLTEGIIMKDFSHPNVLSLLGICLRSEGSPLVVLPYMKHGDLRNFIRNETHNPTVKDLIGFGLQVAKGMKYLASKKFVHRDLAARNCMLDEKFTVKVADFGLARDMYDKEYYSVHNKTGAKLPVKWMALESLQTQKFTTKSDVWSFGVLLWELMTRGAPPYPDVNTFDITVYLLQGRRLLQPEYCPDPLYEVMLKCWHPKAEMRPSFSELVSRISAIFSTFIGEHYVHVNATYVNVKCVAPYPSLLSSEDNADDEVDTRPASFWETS
Chain of IKBKE (Q14164 whole entry, the tested form may be a part): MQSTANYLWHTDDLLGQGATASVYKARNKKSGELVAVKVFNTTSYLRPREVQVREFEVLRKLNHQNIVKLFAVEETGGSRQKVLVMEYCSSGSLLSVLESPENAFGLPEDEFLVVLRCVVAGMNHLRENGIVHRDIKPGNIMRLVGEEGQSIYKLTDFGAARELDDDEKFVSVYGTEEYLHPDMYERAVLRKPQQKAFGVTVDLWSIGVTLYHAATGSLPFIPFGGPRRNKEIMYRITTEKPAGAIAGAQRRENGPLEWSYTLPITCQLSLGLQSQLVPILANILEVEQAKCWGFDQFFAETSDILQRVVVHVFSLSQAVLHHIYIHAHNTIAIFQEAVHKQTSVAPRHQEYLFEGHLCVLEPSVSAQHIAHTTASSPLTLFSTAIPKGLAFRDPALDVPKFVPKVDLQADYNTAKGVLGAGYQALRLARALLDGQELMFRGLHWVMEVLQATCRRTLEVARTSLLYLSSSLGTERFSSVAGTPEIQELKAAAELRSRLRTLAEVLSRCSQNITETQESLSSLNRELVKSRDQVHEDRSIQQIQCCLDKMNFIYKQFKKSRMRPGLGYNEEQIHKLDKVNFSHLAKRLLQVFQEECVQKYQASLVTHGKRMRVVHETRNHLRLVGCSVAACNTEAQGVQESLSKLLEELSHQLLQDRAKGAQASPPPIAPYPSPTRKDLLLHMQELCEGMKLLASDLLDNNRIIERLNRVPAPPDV
Chain of AURKA (O14965 whole entry): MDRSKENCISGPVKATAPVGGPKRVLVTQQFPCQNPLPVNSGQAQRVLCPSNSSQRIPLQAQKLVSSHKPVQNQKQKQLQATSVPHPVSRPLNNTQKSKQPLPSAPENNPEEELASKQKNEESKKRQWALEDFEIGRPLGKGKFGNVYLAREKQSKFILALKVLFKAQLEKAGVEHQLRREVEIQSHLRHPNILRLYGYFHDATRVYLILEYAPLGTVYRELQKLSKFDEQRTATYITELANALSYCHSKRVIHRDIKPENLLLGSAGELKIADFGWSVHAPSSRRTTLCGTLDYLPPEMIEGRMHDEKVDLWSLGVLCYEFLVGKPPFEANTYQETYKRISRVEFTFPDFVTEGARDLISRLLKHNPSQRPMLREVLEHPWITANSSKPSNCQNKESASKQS

In the case of `Nc1ncc2cc(-c3c(Br)cccc3Br)c(N)nc2n1`, the Activity (Escherichia coli [1]) is reported as “Active”, the inhibition at 1 h, 25 µM (NTRK1) is reported as 47% and the inhibition at 1 h, 25 µM (MAPK1) is reported as 26%. The inhibition at 1 h, 25 µM (MAPK14) was 24%, the inhibition at 1 h, 25 µM (AURKA) was 20% and the inhibition at 1 h, 25 µM (CDK1/cyclin B) was 18%. The inhibition at 1 h, 25 µM (SGK (Sgk1)) was 7% and the inhibition at 1 h, 25 µM (CSNK2A1) was 4%.

In the case of `CC(C)COc1cccc(Cl)c1-c1cc2cnc(N)nc2nc1N1C[C@@H]2[C@@H](N)[C@@H]2C1`, the IC50 (Biotin carboxylase) is reported as no more than 15 nM, the MIC (Escherichia coli [2]) is reported as 0.03 µg/mL (≈ 0.0706 µM) and the Activity (Escherichia coli [3]) is reported as “Active”. The inhibition at 1 h, 25 µM (FYN) was 12%, the inhibition at 1 h, 25 µM (NTRK1) was 40% and the inhibition at 1 h, 25 µM (MAPK1) was 6%. It also gave an inhibition at 1 h, 25 µM (MAPK14) of 5%, an Activity (Pseudomonas aeruginosa) of 2 ×10⁻⁹ No_unit and an inhibition at 1 h, 25 µM (MET) of 15%. The inhibition at 1 h, 25 µM (IKBKE) was 0%.

`Nc1ncc2cc(-c3c(Cl)cccc3-c3cccnc3)c(N3C[C@@H]4[C@@H](N)[C@@H]4C3)nc2n1` gave an IC50 (Biotin carboxylase) of no more than 15 nM, an MIC (Escherichia coli [2]) of 0.03 µg/mL (≈ 0.0698 µM) and an inhibition at 1 h, 25 µM (FYN) of 12%. For the same compound, the inhibition at 1 h, 25 µM (BTK) was 16%, the inhibition at 1 h, 25 µM (NTRK1) was 47% and the inhibition at 1 h, 25 µM (AURKA) was 9%. The inhibition at 1 h, 25 µM (CDK1/cyclin B) was 4%, the inhibition at 1 h, 25 µM (CSNK2A1) was 0% and the Activity (Pseudomonas aeruginosa) was 9 ×10⁻⁹ No_unit. The inhibition at 1 h, 25 µM (MET) was 7%, the inhibition at 1 h, 25 µM (IKBKB) was 5% and the inhibition at 1 h, 25 µM (IKBKE) was 3%.
